Measured values as given in ChEMBL document CHEMBL5260810, “Inhibition of bromodomain-containing protein 9 for the prevention of epigenetically-defined drug resistance” (Bioorg Med Chem Lett, 2017).

Key:
[1] = Cytotoxicity against human HEC-108 cells measured after 8 days; type: functional, cell-based; conditions: HEC-108, 192 h
COR-L88 = assay: Cytotoxicity against human COR-L88 cells measured after 8 days; type: functional, cell-based; conditions: COR-L88, 192 h
[2] = Cytotoxicity against human UM-RC-7 cells measured after 8 days; type: functional, cell-based; conditions: UM-RC-7, 192 h
[3] = Cytotoxicity against human Hs 852.T cells measured after 8 days; type: functional, cell-based; conditions: 192 h
[4] = Cytotoxicity against human NCE-G 122 cells measured after 8 days; type: functional, cell-based; conditions: NCE-G 122, 192 h
RL95-2 = assay: Cytotoxicity against human RL95-2 cells measured after 8 days; type: functional, cell-based; conditions: RL95-2, 192 h
[5] = molecular target: T1, ATPase family AAA domain-containing protein 2B (Homo sapiens, UniProt Q9ULI0); assay: Binding affinity to human partial length ATAD2B (Q955 to R1082 residues) expressed in bacterial expression system by BROMOscan assay
T1 sequence (Q9ULI0 whole entry): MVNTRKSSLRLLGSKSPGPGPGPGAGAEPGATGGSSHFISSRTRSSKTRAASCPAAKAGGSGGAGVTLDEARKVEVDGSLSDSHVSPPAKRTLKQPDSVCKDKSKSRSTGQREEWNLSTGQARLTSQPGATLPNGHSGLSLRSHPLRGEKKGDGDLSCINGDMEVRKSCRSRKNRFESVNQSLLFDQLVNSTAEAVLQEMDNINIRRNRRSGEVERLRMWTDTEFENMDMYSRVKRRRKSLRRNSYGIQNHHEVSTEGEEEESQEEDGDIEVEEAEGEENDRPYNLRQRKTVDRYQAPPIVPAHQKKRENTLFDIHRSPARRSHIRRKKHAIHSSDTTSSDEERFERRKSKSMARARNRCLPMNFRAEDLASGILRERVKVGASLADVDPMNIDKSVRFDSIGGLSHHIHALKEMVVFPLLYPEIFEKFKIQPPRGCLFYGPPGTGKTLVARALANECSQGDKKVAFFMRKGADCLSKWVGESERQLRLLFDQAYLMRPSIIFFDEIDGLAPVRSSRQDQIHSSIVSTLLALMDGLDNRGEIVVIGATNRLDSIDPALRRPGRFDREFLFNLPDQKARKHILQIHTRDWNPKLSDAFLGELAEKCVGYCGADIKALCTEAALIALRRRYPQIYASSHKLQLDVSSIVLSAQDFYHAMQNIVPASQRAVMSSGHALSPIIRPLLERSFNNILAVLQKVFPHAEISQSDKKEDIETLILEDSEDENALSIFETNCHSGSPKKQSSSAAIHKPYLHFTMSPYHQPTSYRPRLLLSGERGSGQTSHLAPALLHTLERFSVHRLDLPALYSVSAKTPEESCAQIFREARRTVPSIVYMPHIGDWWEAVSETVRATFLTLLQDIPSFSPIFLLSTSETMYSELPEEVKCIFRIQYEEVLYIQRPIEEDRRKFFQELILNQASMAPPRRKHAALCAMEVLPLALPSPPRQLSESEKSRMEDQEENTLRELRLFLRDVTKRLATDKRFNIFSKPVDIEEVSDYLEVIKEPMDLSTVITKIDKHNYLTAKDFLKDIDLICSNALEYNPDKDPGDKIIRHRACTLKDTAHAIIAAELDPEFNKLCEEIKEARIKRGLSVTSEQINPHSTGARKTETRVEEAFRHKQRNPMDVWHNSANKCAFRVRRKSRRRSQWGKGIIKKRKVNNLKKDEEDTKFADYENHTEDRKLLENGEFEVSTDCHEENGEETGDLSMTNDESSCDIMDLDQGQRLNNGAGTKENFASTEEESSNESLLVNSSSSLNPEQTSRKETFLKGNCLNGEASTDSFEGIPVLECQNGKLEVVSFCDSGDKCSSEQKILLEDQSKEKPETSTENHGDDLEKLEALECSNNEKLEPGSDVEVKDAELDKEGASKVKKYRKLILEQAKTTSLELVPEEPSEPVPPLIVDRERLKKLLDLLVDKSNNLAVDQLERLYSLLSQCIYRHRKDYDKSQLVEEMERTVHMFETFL

SiHa = assay: Cytotoxicity against human SiHa cells measured after 8 days; type: functional, cell-based; conditions: 192 h
MG-63 = assay: Cytotoxicity against human MG-63 cells measured after 8 days; type: functional, cell-based; conditions: MG-63, 192 h
SNU-398 = assay: Cytotoxicity against human SNU-398 cells measured after 8 days; type: functional, cell-based; conditions: SNU-398, 192 h
[6] = Cytotoxicity against human HCS-2 cells measured after 8 days; type: functional, cell-based; conditions: HCS-2, 192 h
[7] = Cytotoxicity against human NCE-G 96 cells measured after 8 days; type: functional, cell-based; conditions: NCE-G 96, 192 h
SNU-638 = assay: Cytotoxicity against human SNU-638 cells measured after 8 days; type: functional, cell-based; conditions: SNU-638, 192 h
[8] = Cytotoxicity against human 4498-16820 Mel-BR1 X1 cells measured after 8 days; type: functional, cell-based; conditions: 4498-16820 Mel-BR1 X1, 192 h
[9] = Cytotoxicity against human KPR3070 cells measured after 8 days; type: functional, cell-based; conditions: KPR3070, 192 h
[10] = Cytotoxicity against human HCC850 cells measured after 8 days; type: functional, cell-based; conditions: HCC850, 192 h
SNU-387 = assay: Cytotoxicity against human SNU-387 cells measured after 8 days; type: functional, cell-based; conditions: SNU-387, 192 h
B16-F10 = assay: Cytotoxicity against mouse B16-F10 cells measured after 8 days; type: functional, cell-based; conditions: B16-F10, 192 h
[11] = molecular target: Glycogen synthase kinase-3 beta (Homo sapiens) (UniProt P49841); assay: Inhibition of GSK3beta (unknown origin) at 1 uM relative to control
Glycogen synthase kinase-3 beta (Homo sapiens), sequence (P49841 whole entry, looked up): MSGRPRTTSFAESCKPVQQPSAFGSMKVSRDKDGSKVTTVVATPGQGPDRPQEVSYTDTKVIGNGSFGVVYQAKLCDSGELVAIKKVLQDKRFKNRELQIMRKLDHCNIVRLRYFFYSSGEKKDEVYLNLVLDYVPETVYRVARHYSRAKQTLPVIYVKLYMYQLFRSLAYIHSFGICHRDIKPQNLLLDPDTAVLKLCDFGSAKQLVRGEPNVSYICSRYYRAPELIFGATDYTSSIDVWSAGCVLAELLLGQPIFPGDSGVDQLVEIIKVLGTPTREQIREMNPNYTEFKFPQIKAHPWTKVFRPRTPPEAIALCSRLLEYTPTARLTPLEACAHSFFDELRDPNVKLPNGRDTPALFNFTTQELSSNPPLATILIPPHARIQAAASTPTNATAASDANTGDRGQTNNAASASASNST

[12] = Cytotoxicity against human MT-3 cells measured after 8 days; type: functional, cell-based; conditions: MT-3, 192 h
OCI-AML2 = assay: Cytotoxicity against human OCI-AML2 cells measured after 8 days; type: functional, cell-based; conditions: OCI-AML2, 192 h
KMS-11 = assay: Cytotoxicity against human KMS-11 cells measured after 8 days; type: functional, cell-based; conditions: KMS-11, 192 h
MDA-MB-175-VII = assay: Cytotoxicity against human MDA-MB-175-VII cells measured after 8 days; type: functional, cell-based; conditions: 192 h
S-117 = assay: Cytotoxicity against human S-117 cells measured after 8 days; type: functional, cell-based; conditions: S-117, 192 h
T84 = assay: Cytotoxicity against human T84 cells measured after 8 days; type: functional, cell-based; conditions: T84, 192 h
SH-SY5Y = assay: Cytotoxicity against human SH-SY5Y cells measured after 8 days; type: functional, cell-based; conditions: 192 h
SK-N-BE(2) = assay: Cytotoxicity against human SK-N-BE(2) cells measured after 8 days; type: functional, cell-based; conditions: SKNBE2, 192 h
[13] = Cytotoxicity against human TC71 cells measured after 8 days; type: functional, cell-based; conditions: TC-71, 192 h
[14] = Cytotoxicity against human SBC-7 cells measured after 8 days; type: functional, cell-based; conditions: SBC-7, 192 h
SW780 = assay: Cytotoxicity against human SW780 cells measured after 8 days; type: functional, cell-based; conditions: SW780, 192 h
786-0 = assay: Cytotoxicity against human 786-0 cells measured after 8 days; type: functional, cell-based; conditions: 786-0, 192 h
[15] = Cytotoxicity against human KPP14449 cells measured after 8 days; type: functional, cell-based; conditions: KPP14449, 192 h

| Structure (SMILES) | IC50 [1] [µM] | IC50 (COR-L88) [µM] | IC50 [2] [µM] | IC50 [3] [µM] | IC50 [4] [µM] | IC50 (RL95-2) [µM] | Kd [5] [µM] | IC50 (SiHa) [µM] | IC50 (MG-63) [µM] | IC50 (SNU-398) [µM] | IC50 [6] [µM] | IC50 [7] [µM] | IC50 (SNU-638) [µM] | IC50 [8] [µM] | IC50 [9] [µM] | IC50 [10] [µM] | IC50 (SNU-387) [µM] | IC50 (B16-F10) [µM] | inhibition [11] [%] | IC50 [12] [µM] | also measured |
| --- | --- | --- | --- | --- | --- | --- | --- | --- | --- | --- | --- | --- | --- | --- | --- | --- | --- | --- | --- | --- | --- |
| C/C=C/Cn1cc(-c2ccc(C(C)(C)O)cc2OC)c2cc[nH]c2c1=O | 20 | 20 | 20 | 20 | 20 | 20 | > 10 | 20 | 7.4 | 20 | 20 | 20 | 20 | 20 | 20 | 20 | 20 | 20 | 3.5 | 20 | IC50 (OCI-AML2): 14.2 µM; IC50 (KMS-11): 9.13 µM; IC50 (MDA-MB-175-VII): 20 µM; IC50 (S-117): 20 µM; IC50 (T84): 20 µM; IC50 (SH-SY5Y): 20 µM; IC50 (SK-N-BE(2)): 20 µM; IC50 [13]: 13.9 µM; IC50 [14]: 20 µM; IC50 (SW780): 20 µM; IC50 (786-0): 20 µM; IC50 [15]: 20 µM |
| C/C=C/Cn1cc(-c2ccc(C(=O)N3CCOCC3)cc2)c2cc[nH]c2c1=O | 20 | 20 | 20 | 20 | 20 | 20 | > 10 | 20 | 20 | 20 | 20 | 20 | 20 | 20 | 20 | 20 | 20 | 20 | -2 | 20 | IC50 (OCI-AML2): 8.38 µM; IC50 (KMS-11): 12.4 µM; IC50 (MDA-MB-175-VII): 20 µM; IC50 (S-117): 20 µM; IC50 (T84): 20 µM; IC50 (SH-SY5Y): 20 µM; IC50 (SK-N-BE(2)): 20 µM; IC50 [13]: 11.1 µM; IC50 [14]: 20 µM; IC50 (SW780): 20 µM; IC50 (786-0): 20 µM; IC50 [15]: 20 µM |
| C/C=C/Cn1cc(-c2cc(OC)c(C(C)(C)O)cc2OC)c2cc(C)[nH]c2c1=O | – | – | – | – | – | – | > 10 | – | – | – | – | – | – | – | – | – | – | – | – | – | – |
| C/C=C/Cn1cc(-c2cc(OC)c(C(=O)N3CCOCC3)cc2OC)c2cc(C)[nH]c2c1=O | – | – | – | – | – | – | > 10 | – | – | – | – | – | – | – | – | – | – | – | 2.5 | – | – |
